According to patent publication US8946423B2, “Highly soluble salt of pyrroloquinoline quinone and method for producing the same” (Mitsubishi Gas Chemical Company, Inc., priority 2010, dated 2015):

Test: Dissolution test: salts dissolved up to saturation, solubility determined by absorbance at 450 nm
Conditions: for Relative Ratio (solubility): relative to Disodium Salt of PQQ in water = 1; for solubility of pyrroloquinoline / solubility of pyrroloquinoline, mmol/L: saturation at room temperature of 23 to 28° C.
Description: The disodium salt of PQQ obtained by the method as described in Example 1 was used.
These salts were dissolved up to saturation at room temperature of 23 to 28° C., and these solutions each were diluted by 20 times or 400 times with a phosphate buffer having a pH of 7.5. For the diluted solutions each, an analysis of the ultraviolet-visible absorption spectra was carried out using a HITACHI U-2000 spectrometer.

Row | Compound | solubility in ethanol (in words) | Relative Ratio (solubility) (Solvent Ethanol) | solubility of pyrroloquinoline (Solvent Ethanol) [mM] | Relative Ratio (solubility) (Solvent Water) | solubility of pyrroloquinoline (Solvent Water) [mM] | solubility of pyrroloquinoline, mmol/L (Solvent Ethanol) | solubility of pyrroloquinoline, mmol/L (Solvent Water)
1 | O=C([O-])c1cc(C(=O)[O-])c2c(n1)C(=O)C(=O)c1cc(C(=O)O)[nH]c1-2.[Na+].[Na+] [Disodium Salt of PQQ, reference compound] | almost insoluble | – | – | – | – | – | –
2 | Dicholine Salt of PQQ | – | 13.9 | 111 | 11.8 | 94 | – | –
3 | Monocholine Salt of PQQ | – | 0.06 | 0.52 | 0.24 | 1.94 | – | –
4 | C[N+](C)(C)CCO.C[N+](C)(C)CCO.C[N+](C)(C)CCO.O=C(O)c1cc(C(=O)O)c2c(n1)C(=O)C(=O)c1cc(C(=O)O)[nH]c1-2 [Tricholine Salt of PQQ] | – | – | – | – | – | ≥ 171 or mmol/L | ≥ 171 or mmol/L
